# Literature values, collected in patent US8945534B2, “Controlled activation of the reuterin-production machinery of Lactobacillus” (priority 2008, dated 2015).
# Tested on: Escherichia, Salmonella, Shigella, Proteus, Pseudomonas, Clostridium, Staphylococcus, Streptococcus, and Helicobacter pylori; several fungi and other …
# Details: species representing all bacterial genera tested thus far; U.S. Pat. Nos. 5,439,678 etc.
structure (smiles),measurement,value
"O=CCCO [Reuterin, 3-hydroxypropionaldehyde]",inhibition of growth of microorganisms,capable of inhibiting growth
